Test results: patent EP0908457B1, “3-(1,2-benzisothiazol- and isoxazol-5-Y1)-2,4(1H,3H)-pyrimidinedione or thione and 3-(1,2-benzisothiazol- and isoxazol-5-y1)-4(3H)-pyrimidinone or thione herbicidal agents” (BASF AKTIENGESELLSCHAFT, priority 1997, dated 1999)

Assays:
[1] = test system: Echinochloa oryzoides (Ard.) Fritsch.; experiment: Preemergence weed control under flooded paddy conditions, ECHORC (Watergrass (Calif.)); type: in vivo; conditions: preemergence, flooded paddy, rated three to four weeks after treatment
[2] = test system: Cyperus iria; experiment: Preemergence weed control under flooded paddy conditions, CYPIR (Rice Flatsedge); type: in vivo; conditions: preemergence, flooded paddy, rated three to four weeks after treatment
[3] = test system: Cyperus serotinus, Rottb.; experiment: Preemergence weed control under flooded paddy conditions, CYPSE (Flatsedge); type: in vivo; conditions: preemergence, rated three to four weeks after treatment
[4] = test system: Monochoria vaginalis, Presl.; experiment: Preemergence weed control under flooded paddy conditions, MOOVA (Monochoria); type: in vivo; conditions: preemergence, flooded paddy, rated three to four weeks after treatment
[5] = test system: Sagittaria pygmaea, L.; experiment: Preemergence weed control under flooded paddy conditions, SAGPY (Arrowhead (Pygmaea)); type: in vivo; conditions: preemergence, flooded paddy, rated three to four weeks after treatment
[6] = test system: Oryza sativa, (L.) Tebonnet; experiment: Rice tolerance to post-transplant applications under flooded paddy conditions (Example 187), ORYSAT (Rice, Tebonnet); conditions: rated three to four weeks after treatment
Further: meaning of each grade not given here.

SMILES | herbicidal effect rating, ECHORC ([1]; Rate 0.0320 kg/ha) | herbicidal effect rating, ECHORC ([1]; Rate 0.0620 kg/ha) | herbicidal effect rating, ECHORC ([1]; Rate 0.1250 kg/ha) | herbicidal effect rating, ECHORC ([1]; Rate 0.2500 kg/ha) | herbicidal effect rating, CYPIR ([2]; Rate 0.0320 kg/ha) | herbicidal effect rating, CYPIR ([2]; Rate 0.0620 kg/ha) | herbicidal effect rating, CYPIR ([2]; Rate 0.1250 kg/ha) | herbicidal effect rating, CYPIR ([2]; Rate 0.2500 kg/ha) | herbicidal effect rating, CYPSE ([3]; Rate 0.0320 kg/ha) | herbicidal effect rating, CYPSE ([3]; Rate 0.0620 kg/ha) | herbicidal effect rating, CYPSE ([3]; Rate 0.2500 kg/ha) | herbicidal effect rating, MOOVA ([4]; Rate 0.0320 kg/ha) | herbicidal effect rating, MOOVA ([4]; Rate 0.0620 kg/ha) | herbicidal effect rating, MOOVA ([4]; Rate 0.1250 kg/ha) | herbicidal effect rating, MOOVA ([4]; Rate 0.2500 kg/ha) | herbicidal effect rating, SAGPY ([5]; Rate 0.0320 kg/ha) | herbicidal effect rating, SAGPY ([5]; Rate 0.0620 kg/ha) | herbicidal effect rating, SAGPY ([5]; Rate 0.1250 kg/ha) | herbicidal effect rating, SAGPY ([5]; Rate 0.2500 kg/ha) | herbicidal effect rating ORYSAT ([6]; Rate 0.0320 kg/ha) | further results
CC(C#N)c1nsc2ccc(-n3c(=O)cc(C(F)(F)F)n(C)c3=O)cc12 (stereo not drawn) [Example 583, 1,2-Benzisothiazole-3-acetonitrile, 5-[3,6-dihydro-3-methyl-2,6-dioxo-4-(trifluoromethyl)-1(2H)-pyrimidinyl]-alpha-methyl-] | 3.0 | 7.5 | 9.0 | 9.0 | 9.0 | 9.0 | 9.0 | 9.0 | 8.5 | 9.0 | 9.0 | 6.0 | 9.0 | 9.0 | 9.0 | 9.0 | 9.0 | 9.0 | 9.0 | 5.0 | herbicidal effect rating, CYPSE ([3]; Rate 0.1250 kg/ha): 9.0; herbicidal effect rating ORYSAT ([6]; Rate 0.0620 kg/ha): 7.0; herbicidal effect rating ORYSAT ([6]; Rate 0.1250 kg/ha): 9.0; herbicidal effect rating ORYSAT ([6]; Rate 0.2500 kg/ha): 9.0
Cn1c(C(F)(F)F)cc(=O)n(-c2ccc3snc(COCc4ccc(Cl)cc4)c3c2)c1=O [Example 584, 2,4(1H,3H)-Pyrimidinedione, 3-{3-{[(p-chlorobenzyl)oxy]methyl}-1,2-benzisothiazol-5-yl}-1-methyl-6-(trifluoromethyl)-] | 6.0 | 9.0 | 9.0 | 9.0 | 1.5 | 6.0 | 9.0 | 9.0 | 0.0 | 0.0 | 0.0 | 3.0 | 8.0 | 9.0 | 9.0 | 0.0 | 1.5 | 4.0 | 2.0 | 0.0 | herbicidal effect rating ORYSAT ([6]; Rate 0.0620 kg/ha): 1.0; herbicidal effect rating ORYSAT ([6]; Rate 0.1250 kg/ha): 1.0; herbicidal effect rating ORYSAT ([6]; Rate 0.2500 kg/ha): 3.5
Cn1c(C(F)(F)F)cc(=O)n(-c2ccc3snc(COCc4ccc(Cl)cc4Cl)c3c2)c1=O [Example 585, 2,4(1H,3H)-Pyrimidinedione, 3-{3-{[(2,4-dichlorobenzyl)oxy]methyl}-1,2-benzisothiazol-5-yl}-1-methyl-6-(trifluoromethyl)-] | 5.0 | 8.5 | 8.5 | 9.0 | 2.5 | 8.5 | 9.0 | 9.0 | 0.0 | 0.0 | 3.0 | 3.5 | 3.5 | 4.5 | 9.0 | 0.0 | 1.5 | 2.0 | 2.5 | 1.0 | herbicidal effect rating, CYPSE ([3]; Rate 0.1250 kg/ha): 0.0; herbicidal effect rating ORYSAT ([6]; Rate 0.0620 kg/ha): 1.5; herbicidal effect rating ORYSAT ([6]; Rate 0.1250 kg/ha): 1.5; herbicidal effect rating ORYSAT ([6]; Rate 0.2500 kg/ha): 1.5
Cn1c(C(F)(F)F)cc(=O)n(-c2ccc3snc(COCc4ccc(Cl)c(Cl)c4)c3c2)c1=O [Example 586, 2,4(1H,3H)-Pyrimidinedione, 3-{3-{[(3,4-dichlorobenzyl)oxy]methyl}-1,2-benzisothiazol-5-yl}-1-methyl-6-(trifluoromethyl)-] | 8.0 | 9.0 | 9.0 | 9.0 | 8.0 | 8.5 | 9.0 | 9.0 | 0.0 | 0.0 | 4.5 | 9.0 | 6.5 | 9.0 | 9.0 | 0.0 | 0.0 | 0.0 | 0.0 | 1.0 | herbicidal effect rating, CYPSE ([3]; Rate 0.1250 kg/ha): 4.5; herbicidal effect rating ORYSAT ([6]; Rate 0.0620 kg/ha): 2.0; herbicidal effect rating ORYSAT ([6]; Rate 0.1250 kg/ha): 2.0; herbicidal effect rating ORYSAT ([6]; Rate 0.2500 kg/ha): 2.0
